Results taken from patent US20250179589A1, “SYNTHETIC LETHALITY AND THE TREATMENT OF CANCER” (PACYLEX PHARMACEUTICALS INC., priority 2012, published 2025).

Tests used:
Jurkat T cells = test: Effect of HMA on the induction of apoptosis, immunoblot; type: cell-based, human
Description: HMA was saponified and conjugated to bovine serum albumin (BSA) prior to addition to cells to facilitate its cellular uptake as described previously (Yap et al., 2010). Briefly, HMA was incubated with a 20% molar excess of potassium hydroxide (KOH) at 65° C. for 15 min. Subsequently, a 20× solution was made by dissolving the KOH saponified HMA in serum-free RPMI media containing 20% fatty acid-free BSA at 37° C., followed by an additional 15 min incubation at 37° C. Since sodium myristate was used as a control, it was also incubated in serum-free RPMI media containing 20% fatty acid-free BSA at 37° C. prior to addition to cells. Subsequently, Jurkat T cells (1×10^7 cells) were incubated with either 1 mM HMA or 1 mM sodium myristate conjugated to fatty-acid free BSA (final concentration in cell culture 1%) for 1 h at 37° C. in RPMI media (without FBS, supplements or antibiotics). After incubation, apoptosis was induced using anti-Fas (150 ng/mL) or STS (2.5 μM) with cycloheximide (5 μg/mL) or vehicle alone (DMSO). Samples were collected every 2 h for an 8 h period, washed with cold PBS and lysed with 0.3 mL of 1% sodium dodecyl sulfate (SDS)-radio-immuno-precipitation assay (RIPA) buffer and subjected to 2 rounds of sonication for 15 seconds at an output of 5.5-6.5 on a Branson Sonifier and placed on ice for 2 min in between each cycle. […]

[1] = test system: Ramos (Burkitt's lymphoma) cells; test: Trypan blue exclusion cell viability assay; type: cell-based, human; details: 24 hours, compared with L0 and CEM cells
Description: (§1) Cell viability assay. B and T cell viability was measured using the trypan blue exclusion method. Cells were grown in confluency conditions (2×10^6 cells/mL maximum) assuring the minimum basal apoptosis. […] Cell viability was quantified using the TC10™ automated cell counter (Biorad).
(§2) The drugs were dissolved in DMSO to make 100× stock solutions for each concentration tested, so that the final volume of DMSO in each well was 1%.
(§3) Cell viability was then quantified using the TC10™ automated cell counter (Biorad).

[2] = test system: BL-2 (Burkitt's lymphoma) cells; test: Trypan blue exclusion cell viability assay; type: cell-based, human; details: BL-2, 24 hours, compared with L0 and CEM cells
Description: as §1, §2, §3

NMT1 = target: T1, NMT1 (Homo sapiens, UniProt P30419); test: In vitro NMT activity (peptide myristoylation) assay; type: biochemical
T1 construct: We generated His-tagged full-length (His-NMT1 and His-NMT2) and caspase truncated (His-73NMT1, His-26NMT2 and His-68NMT2) human NMT vectors; His6 (N); made in house; host or cells: E. coli Lemo21(DE3) pLysS
Description: (§4) In vitro NMT activity assay. N-myristoyltransferase activity assay protocol was adapted from Raju, R. V., and Sharma, R. K. (1999) Preparation and assay of myristoyl-CoA:protein N-myristoyltransferase. Methods Mol Biol 116, 193-211. [^3H] myristoyl-CoA was freshly synthesized for each experiment, as previously described by Towler, D., and Glaser, L. (1986) Protein fatty acid acylation: enzymatic synthesis of an N-myristoylglycyl peptide. Proc Nat Acad Sci USA 83, 2812-2816. Briefly, cells were resuspended in 0.25 M sucrose buffer (50 mM NaH2PO4, pH 7.4) and subjected to 2 rounds of sonication at level 6.0 on a Branson Sonicator. Reaction mixture is composed of 10 μL of cell extract (about 20 μg of proteins) incubated in NMT activity buffer (0.26M Tris-HCl, 3.25 mM EGTA, 2.92 mM EDTA and 29.25 mM 2-mercaptoethanol, 1% Triton X-100, pH 7.4) and myristoylable or non-myristoylable decapeptide corresponding to the N-terminal sequence of truncated-Bid (0.1 mM dissolved in water). Reaction was started by the addition of 7.4 μL (≈10 pMol) of freshly synthesized [^3H] myristoyl-CoA (final mixture volume=25 μL) and incubated for 15 min at 30° C. The reaction is stopped by spotting 15 μL of the reaction mixture on a P81 phosphocellulose paper disc (Whatman, Kent, UK) and dried for 30 seconds. Discs were washed (washing buffer: 25 mM Tris buffer, pH 7.4) to remove the residual radioactivity ([^3H]-myristate and [^3H]-myristoyl-CoA) while [^3H]-myristoyl-peptide is retained on the phosphocellulose paper. Radioactivity was quantified by liquid scintillation counting and converted into pMol of myristoylated peptide (Raju, R. V., and Sharma, R. K. (1999) Preparation and assay of myristoyl-CoA:protein N-myristoyltransferase. Methods Mol Biol 116, 193-211
(§5) NMT activity was assayed using a peptide myristoylation assay with purified recombinant NMT1 and NMT2. NMT activity was calculated from the amount of radiolabeled myristoylpeptide produced and detected on phosphocellulose paper (adapted from King et al. 1991, Anal Biochem.).
(§6) In this example, in FIG. 10, the sensitivity of various immortalized normal LO B lymphocytes (obtained from Dr. Riabowol, U. of Calgary), malignant B lymphoma cells (Ramos and BL2), and, T cell leukemia (CEM) is shown to the NMT inhibitor TrisDBA for 24 hours (A) Residual viability of various cell lines treated with TrisDBA for 24 hours (n=9) (B) Effect of TrisDBA on N-myristoyltransferase activity in COS7 cells transiently expressing NMT1 or NMT2 incubated for 24 h with TrisDBA. In vitro the IC50 for TrisDBA is approximately 2 μM for NMT1 and 5 μM for NMT2.

NMT2 = target: T2, NMT2 (Homo sapiens, UniProt O60551); test: as above; type: biochemical
T2 construct: We generated His-tagged full-length (His-NMT1 and His-NMT2) and caspase truncated (His-73NMT1, His-26NMT2 and His-68NMT2) human NMT vectors; His6 (N); made in house; host or cells: E. coli Lemo21(DE3) pLysS
Description: as §4, §5, §6

[3] = test system: Ramos B lymphoma cells transfected with pcDNA3.1-V5-NMT2; test: Survival of NMT2-transfected Ramos cells, trypan blue exclusion; type: cell-based, human; details: TrisDBA 5 ug/ml, 24 hours
Description: as §1

[4] = target: myristoylatable decapeptide corresponding to the N-terminal sequence of ct-Bid; test: cell-based or functional assay
[5] = target: T3, myristoylatable decapeptide corresponding to the N-terminal sequence of ct-Bid
T3 chain: GNRSSHSRLG

His-NMT2 (recombinant …) = target: T4, His-NMT2 (recombinant hexahistidine-tagged full-length human N-myristoyltransferase 2), O60551
T4 chain: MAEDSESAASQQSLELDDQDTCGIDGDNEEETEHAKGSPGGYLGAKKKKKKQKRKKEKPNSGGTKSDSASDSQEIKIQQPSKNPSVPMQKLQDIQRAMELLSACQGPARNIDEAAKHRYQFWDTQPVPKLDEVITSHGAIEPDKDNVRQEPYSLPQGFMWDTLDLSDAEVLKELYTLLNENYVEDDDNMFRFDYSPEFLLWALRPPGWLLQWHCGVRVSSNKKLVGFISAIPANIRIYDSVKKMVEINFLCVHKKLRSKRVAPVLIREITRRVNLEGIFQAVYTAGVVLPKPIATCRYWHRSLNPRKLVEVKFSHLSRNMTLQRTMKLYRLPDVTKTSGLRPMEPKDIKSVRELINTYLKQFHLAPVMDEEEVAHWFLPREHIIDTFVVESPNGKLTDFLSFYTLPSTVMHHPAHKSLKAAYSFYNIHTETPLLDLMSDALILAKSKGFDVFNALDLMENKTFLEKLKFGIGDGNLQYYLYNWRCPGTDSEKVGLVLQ

His-NMT1 (recombinant …) = target: T5, His-NMT1 (recombinant hexahistidine-tagged full-length human N-myristoyltransferase 1), P30419
T5 chain: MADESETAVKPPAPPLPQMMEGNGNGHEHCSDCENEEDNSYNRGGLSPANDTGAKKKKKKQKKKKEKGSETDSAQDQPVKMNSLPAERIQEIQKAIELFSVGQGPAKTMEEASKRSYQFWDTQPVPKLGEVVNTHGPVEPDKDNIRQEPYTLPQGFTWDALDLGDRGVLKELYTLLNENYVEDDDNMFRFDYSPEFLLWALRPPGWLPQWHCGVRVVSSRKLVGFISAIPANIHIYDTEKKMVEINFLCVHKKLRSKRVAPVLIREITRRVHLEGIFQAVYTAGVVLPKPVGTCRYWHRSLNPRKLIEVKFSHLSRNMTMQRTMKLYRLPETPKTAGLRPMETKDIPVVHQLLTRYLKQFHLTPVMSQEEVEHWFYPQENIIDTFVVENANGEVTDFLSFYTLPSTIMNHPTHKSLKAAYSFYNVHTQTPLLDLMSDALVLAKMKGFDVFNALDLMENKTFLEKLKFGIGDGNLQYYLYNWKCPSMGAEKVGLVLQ

Q: CCCCCCCCCCCCC(O)C(=O)O (stereo not drawn) [HMA, 2-hydroxymyristic acid] was tested. Which “time by which cleavage of PARP-1 occurred sooner than with 1 mM sodium myristate” value (Jurkat T cells; 1 mM HMA and anti-Fas) did it give?
A: 2 h

Q: And the “PARP-1 and PAK2 cleavage vs STS and 1 mM sodium myristate” value (Jurkat T cells; HMA/STS, 2 h post induction)?
A: more PARP-1 and PAK2 cleavage

Q: How did the “sensitivity (residual viability)” value [1] turn out when “tris-dibenzylideneacetone-dipalladium [TrisDBA]” was run?
A: more sensitive

Q: What about the “sensitivity (residual viability)” value [2] of the same molecule?
A: more sensitive

Q: What about the IC50 (NMT1; NMT1, in vitro) of the same molecule?
A: ~2 µM

Q: And the “inhibition of NMT activity” value (NMT1; purified recombinant NMT1)?
A: inhibits NMT in vitro

Q: And the IC50 (NMT2; NMT2, in vitro)?
A: ~5 µM

Q: What about the “inhibition of NMT activity” value (NMT2; purified recombinant NMT2) of the same molecule?
A: inhibits NMT in vitro

Q: And the “increase of survival by NMT2 transfection vs control cells transfected with empty plasmid vector” value [3]?
A: 2.5 fold

Q: For “V5-NMT1 (N-terminally V5-tagged NMT1) (from UniProt P30419 1-496) (enzyme)”, which NMT activity in lysates of transfected COS-7 cells relative to cells expressing V5-NMT2 (peptide myristoylation assay) [4] is on record?
A: 5 fold

B1: His-68NMT2 (His-tagged caspase-cleaved, truncated human NMT2) (protein)
chain: SASDSQEIKIQQPSKNPSVPMQKLQDIQRAMELLSACQGPARNIDEAAKHRYQFWDTQPVPKLDEVITSHGAIEPDKDNVRQEPYSLPQGFMWDTLDLSDAEVLKELYTLLNENYVEDDDNMFRFDYSPEFLLWALRPPGWLLQWHCGVRVSSNKKLVGFISAIPANIRIYDSVKKMVEINFLCVHKKLRSKRVAPVLIREITRRVNLEGIFQAVYTAGVVLPKPIATCRYWHRSLNPRKLVEVKFSHLSRNMTLQRTMKLYRLPDVTKTSGLRPMEPKDIKSVRELINTYLKQFHLAPVMDEEEVAHWFLPREHIIDTFVVESPNGKLTDFLSFYTLPSTVMHHPAHKSLKAAYSFYNIHTETPLLDLMSDALILAKSKGFDVFNALDLMENKTFLEKLKFGIGDGNLQYYLYNWRCPGTDSEKVGLVLQ
Q: How did the “NMT activity (filter-based peptide myristoylation assay)” value [5] turn out when B1 was run?
A: both full-length and caspase cleaved truncated NMT1 and NMT2 were catalytically active when compared to the control

Q: And the “NMT activity relative to full-length NMT2 (filter-based peptide myristoylation assay)” value [5]?
A: ˜4-fold (His-68NMT2) more activity when compared to full-length NMT2

B2: recombinant human active caspase-3 (protein)
chain: SGISLDNSYKMDYPEMGLCIIINNKNFHKSTGMTSRSGTDVDAANLRETFRNLKYEVRNKNDLTREEIVELMRDVSKEDHSKRSSFVCVLLSHGEEGIIFGTNGPVDLKKITNFFRGDRCRSLTGKPKLFIIQACRGTELDCGIETDSGVDDDMACHKIPVEADFLYAYSTAPGYYSWRNSKDGSWFIQSLCAMLKQYADKLEFMHILTRVNRKVATEFESFSFDATFHAKKQIPCIVSMLTKELYFYH
Q: How did the “in vitro NMT cleavage assay (Coomassie stained gel)” value (“in vitro NMT cleavage assay” below) (His-NMT2 (recombinant …)) turn out when B2 was run?
A: Reconstitution of NMT1 cleavage by caspases-8 and -3, and, NMT2 cleavage by caspase-3 in vitro

Q: What about the “in vitro NMT cleavage assay” value (His-NMT1 (recombinant …)) of the same molecule?
A: Reconstitution of NMT1 cleavage by caspases-8 and -3, and, NMT2 cleavage by caspase-3 in vitro

B3: recombinant human active caspase-8 (protein)
chain: SESQTLDKVYQMKSKPRGYCLIINNHNFAKAREKVPKLHSIRDRNGTHLDAGALTTTFEELHFEIKPHDDCTVEQIYEILKIYQLMDHSNMDCFICCILSHGDKGIIYGTDGQEAPIYELTSQFTGLKCPSLAGKPKVFFIQACQGDNYQKGIPVETDSEEQPYLEMDLSSPQTRYIPDEADFLLGMATVNNCVSYRNPAEGTWYIQSLCQSLRERCPRGDDILTILTEVNYEVSNKDDKKNMGKQMPQPTFTLRKKLVFPSD
Q: How did the “in vitro NMT cleavage assay” value (His-NMT1 (recombinant …)) turn out when B3 was run?
A: Reconstitution of NMT1 cleavage by caspases-8 and -3, and, NMT2 cleavage by caspase-3 in vitro
